{"source": "patent US20160228388A1", "about": "“METHODS OF ADMINISTERING AMANTADINE COMPOSITIONS” (Adamas Pharmaceuticals, Inc., priority 2014, published 2016)", "key": {"[1]": {"test_system": "MOG35-55 induced experimental autoimmune encephalomyelitis (EAE) in C57BL/6 mice", "assay": "Example 9: clinical scoring of EAE in a mouse model of multiple sclerosis", "format": "in vivo", "settings": "for onset of disease / clinical scores: AMT 60 mg/kg/day or DAL 4 mg/kg/day by Alzet minipump; for clinical scores: vs untreated EAE mice, FIG. 6; for cumulative clinical score (Day 18-27): vs untreated control, FIG. 7"}, "[2]": {"test_system": "MOG35-55 induced experimental autoimmune encephalomyelitis (EAE) in C57BL/6 mice", "assay": "Example 9: kinematic gait analysis / MotoRater walk test in EAE mice", "format": "in vivo", "settings": "for % of animals able to complete the walking test: day 16, EAE mice, untreated EAE control 40%, FIG. 9", "description": "The captured videos of each mouse were first converted to SimiMotion software to track the marked points of body (e.g., paws, hips, tail, etc.), and the movement of these different body points in relation to the ground were recorded in coordinates. Different gait patterns and fine motor movements were analyzed using a custom made automated analysis system. Kinematic endpoints are described in Table 13. [table] Kinematic parameters (Table 13) were graphed as individual values in a scatter graph and/or as mean (±SEM) in a bar graph."}, "Parkinson's patients": {"test_system": "Parkinson's patients", "settings": "cited from earlier work"}, "[3]": {"test_system": "multiple sclerosis patients", "settings": "Goodman et al. 2009; cited from earlier work"}, "Iba-1": {"test_system": "Iba-1", "assay": "Example 9: Iba-1 expression (marker of microglia activation) in EAE mice", "format": "in vivo", "settings": "AMT 60 mg/kg/day, FIG. 8"}, "[4]": {"settings": "dose related; Gracies and Olanow 2002; cited from earlier work"}}, "note": "Counter-ions that a name gives are not always drawn.", "data": [{"smiles": "Nc1ccncc1", "note": "[Dalfampridine, 4-Aminopyridine]", "values": [{"measurement": "onset of disease", "setting": "[1]", "value": "Neither group treated with drug showed a delay onset of disease"}, {"measurement": "clinical scores", "setting": "[1]", "value": "lower clinical scores"}, {"measurement": "cumulative clinical score (Day 18-27)", "setting": "[1]", "value": "reduced cumulative clinical scores"}, {"measurement": "% of animals able to complete the walking test", "setting": "[2]", "value": 50, "unit": "%"}, {"measurement": "walking ability (velocity and stride length)", "setting": "Parkinson's patients; Parkinson's patients, at four weeks, Luca et al. 2015", "value": "did not show an improvement"}, {"measurement": "walking ability", "setting": "[3]", "value": "improvement in walking ability in some patients"}]}, {"smiles": "NC12CC3CC(CC(C3)C1)C2", "note": "[Amantadine HCl]", "values": [{"measurement": "symptom severity", "setting": "[1]; AMT 60 mg/kg/day by Alzet minipump", "value": "decreased symptom severity"}, {"measurement": "onset of disease", "setting": "[1]", "value": "Neither group treated with drug showed a delay onset of disease"}, {"measurement": "clinical scores", "setting": "[1]", "value": "lower clinical scores"}, {"measurement": "cumulative clinical score (Day 18-27)", "setting": "[1]", "value": "reduced cumulative clinical scores"}, {"measurement": "60 cm Walk Time", "setting": "[2]; Day 14, vs untreated EAE control and dalfampridine-treated group, FIG. 10A", "value": "lower time"}, {"measurement": "mean walking speed", "setting": "[2]; Day 14, vs untreated EAE control and dalfampridine-treated group, FIG. 10B", "value": "faster mean walking speed"}, {"measurement": "% of animals able to complete the walking test", "setting": "[2]", "value": 60, "unit": "%"}, {"measurement": "Iba-1 expression", "setting": "Iba-1", "value": "significantly lower expression"}, {"measurement": "CNS side effects", "setting": "[4]", "value": "dose related CNS side effects including dizziness, confusion, hallucinations, insomnia and nightmares"}]}, {"smiles": "COC(=O)C(c1ccccc1)C1CCCCN1", "note": "(centres unmarked) [Methylphenidate]", "values": [{"measurement": "gait impairment", "setting": "Parkinson's patients; Parkinson's disease, Espay et al. 2011", "value": "not effective"}, {"measurement": "gait", "setting": "Parkinson's patients; Parkinson's patients with severe gait disorders receiving STN stimulation, Moreau et al. 2012", "value": "improvement in gait"}]}]}
